What was measured:
[1] = test system: Wnt/β-Catenin signaling pathway; assay: Wnt signaling luciferase (TOPflash) reporter gene assay; assay type: cell-based; conditions: for IC50: luciferase reporter gene assay, mean of three independent experiments, read-out: IC50 (nM) to inhibit the Wnt signaling activity
Text: A dual-luciferase gene reporter assay was used to test inhibitory activities of new compounds on Wnt signaling. […] Therefore, the effects of new compounds on AMPK was examined. […]

[2] = Cytotoxicity (CC50) during the luciferase gene reporter assay; assay type: cell-based; conditions: human, HEK293 cells; short treatment duration of the luciferase gene reporter assay

Row | SMILES | IC50 [1] [nM] | inhibitory activity in the reporter assay ([1]; biotinylated analogs) | CC50 [2] [µM] | inhibition at 1 µM [1] [%]
1 | Cc1ccccc1-n1nnc(C(=O)Nc2ccc3ccccc3n2)c1C [FX1128, reference compound] | 4.1 | – | > 92 | –
2 | Cc1cc(/C=C/c2ccc3cc(N(C)C)ccc3[n+]2C)c(C)n1-c1ccccc1 [Pyrvinium, reference compound] | 599 | – | – | 69
3 | Cc1c(C(=O)Nc2nc3ccccc3s2)nnn1-c1ccccc1OC(F)(F)F [YA1038, N-(Benzo[d]thiazol-2-yl)-5-methyl-1-(2-(trifluoromethoxy)phenyl)-1H-1,2,3-triazole-4-carboxamide] | > 1000 | – | > 92 | 37
4 | Cc1c(C(=O)Nc2nc3ccccc3s2)nnn1-c1ccc(Cl)cc1 [YA1074, N-(Benzo[d]thiazol-2-yl)-1-(4-chlorophenyl)-5-methyl-1H-1,2,3-triazole-4-carboxamide] | > 1000 | – | > 92 | 18
5 | CCc1c(C(=O)Nc2nc3ccccc3s2)nnn1-c1ccccc1F [YA4001, N-(Benzo[d]thiazol-2-yl)-5-ethyl-1-(2-fluorophenyl)-1H-1,2,3-triazole-4-carboxamide] | 0.76 | – | > 92 | –
6 | CC(C)c1c(C(=O)Nc2nc3ccccc3s2)nnn1-c1ccccc1F [YA4005, N-(Benzo[d]thiazol-2-yl)-1-(2-fluorophenyl)-5-isopropyl-1H-1,2,3-triazole-4-carboxamide] | 8.8 | – | > 92 | 99
7 | Cc1c(C(=O)Nc2nc3ccccc3s2)cnn1-c1ccccc1F [YA4007, N-(Benzo[d]thiazol-2-yl)-1-(2-fluorophenyl)-5-methyl-1H-pyrazole-4-carboxamide] | 1.3 | – | > 92 | –
8 | CCc1ccccc1-n1ncc(C(=O)Nc2nc3ccccc3s2)c1C [YA4009, N-(Benzo[d]thiazol-2-yl)-1-(2-ethylphenyl)-5-methyl-1H-pyrazole-4-carboxamide] | 6.7 | – | > 92 | –
9 | Cc1c(C(=O)Nc2nc3ccccc3s2)cnn1-c1ccccc1 [YA4011, N-(Benzo[d]thiazol-2-yl)-5-methyl-1-phenyl-1H-pyrazole-4-carboxamide] | 8.2 | – | > 92 | –
10 | Cc1c(C(=O)Nc2nc3ccccc3s2)cnn1-c1c(F)cccc1Br [YA4017, N-(Benzo[d]thiazol-2-yl)-1-(2-bromo-6-fluorophenyl)-5-methyl-1H-pyrazole-4-carboxamide] | 8.2 | – | > 92 | –
11 | Cc1c(C(=O)Nc2nc3ccccc3s2)cnn1-c1c(F)cccc1F [YA4019, N-(benzo[d]thiazol-2-yl)-1-(2,6-difluorophenyl)-5-methyl-1H-pyrazole-4-carboxamide] | 0.9 | – | > 92 | –
12 | Cc1c(C(=O)Nc2nc3ccccc3s2)cnn1-c1cccc(Cl)c1F [YA4021, N-(Benzo[d]thiazol-2-yl)-1-(3-chloro-2-fluorophenyl)-5-methyl-1H-pyrazole-4-carboxamide] | 9.8 | – | > 92 | –
13 | Cc1c(C(=O)Nc2nc3ccccc3s2)cnn1-c1ccccc1Cl [YA4025, N-(Benzo[d]thiazol-2-yl)-1-(2-chlorophenyl)-5-methyl-1H-pyrazole-4-carboxamide] | 0.4 | – | > 92 | –
14 | Cc1c(C(=O)Nc2nc3ccccc3s2)cnn1-c1ccccc1Br [YA4033, N-(Benzo[d]thiazol-2-yl)-1-(2-bromophenyl)-5-methyl-1H-pyrazole-4-carboxamide] | 5.8 | – | > 92 | –
15 | Cc1c(C(=O)Nc2nc3ccccc3s2)nnn1-c1cccc(Cl)c1 [YA4055, N-(Benzo[d]thiazol-2-yl)-1-(3-chlorophenyl)-5-methyl-1H-1,2,3-triazole-4-carboxamide] | – | – | > 92 | –
16 | Cc1ccccc1-n1nnc(C(=O)Nc2ccc3cc(CN4CCN(C(=O)CCOCCOCCOCCOCCNC(=O)CCCC[C@@H]5SC[C@@H]6NC(=O)N[C@@H]65)CC4)ccc3n2)c1C [YA6023] | – | maintained inhibitory activities | – | –
17 | O=C(Nc1nc2ccccc2s1)c1cnn(-c2ccccc2)c1 [YA6149, N-(Benzo[d]thiazol-2-yl)-1-phenyl-1H-pyrazole-4-carboxamide] | – | – | > 92 | –

Now from value to compound, other results behind:

Row | IC50 [1] [nM] | inhibitory activity in the reporter assay ([1]; biotinylated analogs) | SMILES | CC50 [2] [µM] | inhibition at 1 µM [1] [%]
18 | 3.3 | – | Cc1cccc(F)c1-n1nnc(C(=O)Nc2nc3ccccc3s2)c1C [YA1042, N-(Benzo[d]thiazol-2-yl)-1-(2-fluoro-6-methylphenyl)-5-methyl-1H-1,2,3-triazole-4-carboxamide] | > 92 | 92
19 | > 1000 | – | Cc1c(C(=O)Nc2nc3ccccc3s2)nnn1-c1ccc(F)cc1F [YA1046, N-(Benzo[d]thiazol-2-yl)-1-(2,4-difluorophenyl)-5-methyl-1H-1,2,3-triazole-4-carboxamide] | > 92 | 40
20 | > 1000 | – | Cc1c(C(=O)Nc2nc3ccccc3s2)nnn1-c1cccc(Br)c1 [YA1050, N-(Benzo[d]thiazol-2-yl)-1-(3-bromophenyl)-5-methyl-1H-1,2,3-triazole-4-carboxamide] | > 92 | 7
21 | 126 | – | Cc1cccc(Br)c1-n1nnc(C(=O)Nc2nc3ccccc3s2)c1C [YA1064, N-(Benzo[d]thiazol-2-yl)-1-(2-bromo-6-methylphenyl)-5-methyl-1H-1,2,3-triazole-4-carboxamide] | > 92 | 72
22 | 19 | – | Cc1c(C(=O)Nc2nc3ccccc3s2)nnn1-c1c(Cl)cccc1Cl [YA1066, N-(Benzo[d]thiazol-2-yl)-1-(2,6-dichlorophenyl)-5-methyl-1H-1,2,3-triazole-4-carboxamide] | > 92 | 88
23 | 35 | – | Cc1cccc(Cl)c1-n1nnc(C(=O)Nc2nc3ccccc3s2)c1C [YA1068, N-(Benzo[d]thiazol-2-yl)-1-(2-chloro-6-methylphenyl)-5-methyl-1H-1,2,3-triazole-4-carboxamide] | > 92 | 80
24 | > 1000 | – | Cc1c(C(=O)Nc2nc3ccccc3s2)nnn1-c1cccc(F)c1 [YA1072, N-(Benzo[d]thiazol-2-yl)-1-(3-fluorophenyl)-5-methyl-1H-1,2,3-triazole-4-carboxamide] | > 92 | 42
25 | > 1000 | – | Cc1c(C(=O)Nc2nc3ccccc3s2)nnn1-c1ccc(F)cc1 [YA1076, N-(Benzo[d]thiazol-2-yl)-1-(4-fluorophenyl)-5-methyl-1H-1,2,3-triazole-4-carboxamide] | > 92 | 15
26 | 4.7 | – | Cc1c(C(=O)Nc2nc3ccccc3s2)nnn1-c1cc(F)ccc1F [YA1084, N-(Benzo[d]thiazol-2-yl)-1-(2,5-difluorophenyl)-5-methyl-1H-1,2,3-triazole-4-carboxamide] | > 92 | 88
27 | > 1000 | – | Cc1c(C(=O)Nc2nc3ccccc3s2)nnn1-c1ccc(Br)cc1 [YA1086, N-(Benzo[d]thiazol-2-yl)-1-(4-bromophenyl)-5-methyl-1H-1,2,3-triazole-4-carboxamide] | > 92 | 32
28 | > 1000 | – | Cc1ccccc1-n1nnc(C(=O)Nc2ccc3ccc(Br)cc3n2)c1C [YA1126, N-(7-Bromoquinolin-2-yl)-5-methyl-1-(o-tolyl)-1H-1,2,3-triazole-4-carboxamide] | > 92 | –
29 | 1.8 | – | Cc1c(C(=O)Nc2nc3ccccc3s2)nnn1-c1ccccc1Br [YA4003, N-(Benzo[d]thiazol-2-yl)-1-(2-bromophenyl)-5-methyl-1H-1,2,3-triazole-4-carboxamide] | > 92 | 100
30 | 202 | – | Cc1ccccc1-n1nnc(C(=O)Nc2nc3cc(Cl)ccc3s2)c1C [YA4013, N-(5-Chlorobenzo[d]thiazol-2-yl)-5-methyl-1-(o-tolyl)-1H-1,2,3-triazole-4-carboxamide] | > 92 | 61
31 | 0.46 | – | Cc1c(C(=O)Nc2nc3ccccc3s2)nnn1-c1ccccc1F [YA4029, N-(benzo[d]thiazol-2-yl)-1-(2-fluorophenyl)-5-methyl-1H-1,2,3-triazole-4-carboxamide] | > 92 | 100
32 | 18 | – | Cc1cccc(-n2nnc(C(=O)Nc3nc4ccccc4s3)c2C)c1C [YA4037] | > 92 | 83
33 | 17 | – | Cc1ccc(-n2nnc(C(=O)Nc3nc4ccccc4s3)c2C)c(C)c1 [YA4039] | > 92 | 88
34 | > 1000 | – | COc1ccc2sc(NC(=O)c3nnn(-c4ccccc4C)c3C)nc2c1 [YA4045, N-(5-Methoxybenzo[d]thiazol-2-yl)-5-methyl-1-(o-tolyl)-1H-1,2,3-triazole-4-carboxamide] | > 92 | –
35 | > 1000 | – | Cc1ccccc1-n1nnc(C(=O)Nc2nc3cc(Br)ccc3s2)c1C [YA4047, N-(5-Bromobenzo[d]thiazol-2-yl)-5-methyl-1-(o-tolyl)-1H-1,2,3-triazole-4-carboxamide] | > 92 | 14
36 | > 1000 | – | Cc1ccccc1-n1nnc(C(=O)Nc2nc3ccc([N+](=O)[O-])cc3s2)c1C [YA4057, 5-Methyl-N-(6-nitrobenzo[d]thiazol-2-yl)-1-(o-tolyl)-1H-1,2,3-triazole-4-carboxamide] | > 92 | –
37 | > 1000 | – | Cc1ccccc1-n1nnc(C(=O)Nc2nc3ccc(Br)cc3s2)c1C [YA4059, N-(6-Bromobenzo[d]thiazol-2-yl)-5-methyl-1-(o-tolyl)-1H-1,2,3-triazole-4-carboxamide] | > 92 | 31
38 | > 1000 | – | COc1cccc2sc(NC(=O)c3nnn(-c4ccccc4C)c3C)nc12 [YA4061, N-(4-Methoxybenzo[d]thiazol-2-yl)-5-methyl-1-(o-tolyl)-1H-1,2,3-triazole-4-carboxamide] | > 92 | 27
